Test results from patent publication US20100068301A1, “COMPOSITIONS AND TREATMENTS COMPRISING 5-LIPOXYGENASE-ACTIVATING PROTEIN INHIBITORS AND NITRIC OXIDE MODULATORS” (priority 2006, published 2010).
Where two headings read alike, the source gives them in different places.

How the values were obtained:
[1] = test system: naproxen induced gastric lesions; experiment: Rat gastric lesion procedure (naproxen-induced); format: in vivo; details: co-dosed with naproxen 40 mg/kg
Experimental: Gastric lesions in rat can be induced by ingestion of a non-steroidal anti-inflammatory drug (NSAID) such as naproxen. This effect is apparent with 4 to 6 hours of administration. The therapeutic effect of two different agents on preventing NSAID-induced gastric lesions first as a mono-therapy and then as a combination therapy using a fractional dose approach to test for additivity. The two agents tested include 1) 3-[3-tert-Butylsulfanyl-1-[4-(6-ethoxy-pyridin-3-yl)-benzyl]-5-(pyridin-2-ylmethoxy)-1H-indol-2-yl]-2,2-dimethyl-propionic acid (prepared according to the procedures described in US patent publication no. 2007/0105866; see Compound 2-94), a 5-lipoxygenase activating protein (FLAP) inhibitor and 2) isosorbide mononitrate (a nitric oxide donor).
Procedures: Gastric lesions were induced in 24-hour fasted male Sprague-Dawley rats (weighing 200-300 grams) by administering a single oral dose of naproxen (40 mg/kg), in the mono-therapy phase of the study Compound 2-94 was prepared at 1, 10 and 30 mg/kg and was co-dosed with naproxen. Separately, isosorbide mononitrate was prepared at 3, 10, 30 and 100 mg/kg and was co-dosed with naproxen. The ED50 (defined as the dose to produce the half maximal effect) from this phase of the experiment was used to calculate doses for the combination therapy phase of the study in which Compound 2-94 and isosorbide mononitrate were formulated together and co-dosed with Naproxen. Fractional doses tested include; 2, 1, ½ and ¼ of the ED50 values. In all conditions, four hours alter dosing, rats were anesthetized with inhaled isoflurane and the stomachs removed and cut along the lesser curvature and rinsed thoroughly of any contents using tap water. Each stomach was then pinned down flat with the mucosal layer side up and a digit image captured at an exposure of 10×. These images were then used to determine the total lesion area in mm^2. A Lesion Index (LI) was calculated for each individual stomach by the formula:
LI=[lesion area (mm^2)/total stomach area (mm^2)]×100
Individual drug effects were then determined by calculating the percent inhibition of LI for each dose group relative to the naproxen-alone group using the formula:
% inhibition=100−[LItreatment/LIcontrol(naproxen)×100]
(ED50 of Compound 2-94 with isosorbide mononitrate)/(ED50 ft for Compound 2-94 given alone)+(ED50 of isosorbide mononitrate with Compound 2-94)/(ED50 for isosorbide given alone).
The fractional value indicates what proportion of the single ED50 value was accounted for by the corresponding ED50 value of the combination.

[2] = intravenous, cited from earlier work
[3] = Compound 2-94 and isosorbide mononitrate formulated together, read-out: fraction dose ED50 (dose of the component in the combination)
[4] = oral, 4 h after dosing, estimated, read-out: ED50, inhibition of naproxen induced gastric lesions (mono-therapy)

| Compound | ED50 [1, 3] [mg/kg] | ED50 [1, 4] [mg/kg] | decrease of pulmonary vascular resistance (PVR), mean ([2]; 15 patients) [%] | mean PAP after treatment ([2]; 15 patients, decreased from 29.6) [mm Hg] | mean systemic arterial pressure after treatment ([2]; 15 patients, reduced from 89.6, unacceptably low level) [mm Hg] | effect on pulmonary gas exchange ([2]; by increasing QVA/QT) |
| --- | --- | --- | --- | --- | --- | --- |
| O=[N+]([O-])O[C@@H]1CO[C@H]2[C@@H]1OC[C@@H]2O [isosorbide mononitrate] | 7.5 | 15 |  |  |  |  |
| nitroprusside |  |  | 32 | 24.2 | 70 | markedly impairs pulmonary gas exchange |
| CCOc1ccc(-c2ccc(Cn3c(CC(C)(C)C(=O)O)c(SC(C)(C)C)c4cc(OCc5ccccn5)ccc43)cc2)cn1 [Compound 2-94, 3-[3-tert-Butylsulfanyl-1-[4-(6-ethoxy-pyridin-3-yl)-benzyl]-5-(pyridin-2-ylmethoxy)-1H-indol-2-yl]-2,2-dimethyl-propionic acid] | 2.5 | 5 |  |  |  |  |
